Measured values from ChEMBL document CHEMBL1201862, “PubChem BioAssay data set” (2004).
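Five concentrations, 48 hours, 96-well plates. GI50: concentration for 50% inhibition of growth.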 Calls of active or inactive are those of the source. Cut-off read from the data, not from the text of the source: active = GI50 up to about 1.1 µM and inactive = higher.

Tests used:
Test in all cases: DTP human tumour cell line panel, 48 h
[1] = test system: 786-0
[2] = test system: A498
[3] = test system: A549
[4] = test system: ACHN
[5] = test system: BT-549
[6] = test system: CAKI-1
[7] = test system: CCRF-CEM
[8] = test system: COLO 205
[9] = test system: DU-145
[10] = test system: EKVX
[11] = test system: HCC 2998
[12] = test system: HCT-116
[13] = test system: HCT-15
[14] = test system: HL-60
[15] = test system: HOP-62
[16] = test system: HOP-92
[17] = test system: HT-29
[18] = test system: Hs-578T
[19] = test system: IGROV-1
[20] = test system: K562
[21] = test system: KM12
[22] = test system: LOX IMVI
[23] = test system: M14
[24] = test system: MCF7
[25] = test system: MDA-MB-231
[26] = test system: MDA-MB-435
[27] = test system: MDA-N
[28] = test system: MOLT-4
[29] = test system: Malme-3M
[30] = test system: NCI-H23
[31] = test system: NCI-H460
[32] = test system: NCI-H522
[33] = test system: NCI/ADR-RES
[34] = test system: OVCAR-3
[35] = test system: OVCAR-4
[36] = test system: OVCAR-5
[37] = test system: OVCAR-8
[38] = test system: PC-3
[39] = test system: RPMI-8226
[40] = test system: RXF 393
[41] = test system: SF-268
[42] = test system: SF-295
[43] = test system: SF-539
[44] = test system: SK-MEL-28
[45] = test system: SK-MEL-2
[46] = test system: SK-MEL-5
[47] = test system: SK-OV-3
[48] = test system: SN12C
[49] = test system: SNB-19
[50] = test system: SNB-75
[51] = test system: SR
[52] = test system: SW-620
[53] = test system: T47D
[54] = test system: TK-10
[55] = test system: U-251
[56] = test system: UACC-257
[57] = test system: UACC-62
[58] = test system: UO-31
[59] = test system: NCI-H226

For `O=C(Nc1ccccc1)c1cc2c(cc1Cl)Sc1nccn1S2(=O)=O`, the GI50 [1] was 21.2 µM (inactive), the GI50 [2] was 18.5 µM (inactive) and the GI50 [3] was 36.4 µM (inactive). The GI50 [4] was 41.3 µM (inactive), the GI50 [5] was 19.7 µM (inactive) and the GI50 [6] was 0.266 µM (active). For the same compound, the GI50 [7] was 17.3 µM (inactive), the GI50 [8] was 15.3 µM (inactive) and the GI50 [9] was 18.9 µM (inactive). The GI50 [10] was 24.2 µM (inactive), the GI50 [11] was 18.5 µM (inactive) and the GI50 [12] was 12.1 µM (inactive). For the same compound, the GI50 [13] was 19.1 µM, the GI50 [14] was 15.8 µM (inactive) and the GI50 [15] was 16 µM (inactive). The GI50 [16] was 2.58 µM (inactive), the GI50 [17] was 21.9 µM (inactive) and the GI50 [18] was 22.8 µM (inactive). For the same compound, the GI50 [19] was 20.2 µM (inactive), the GI50 [20] was 28.2 µM (inactive) and the GI50 [21] was 18.6 µM (inactive). The GI50 [22] was 9.2 µM (inactive), the GI50 [23] was 16 µM (inactive) and the GI50 [24] was 12.6 µM (inactive). For the same compound, the GI50 [25] was 27 µM (inactive), the GI50 [26] was 14.8 µM (inactive) and the GI50 [27] was 23.5 µM (inactive). For the same compound, the GI50 [28] was 15.6 µM (inactive), the GI50 [29] was 30.1 µM (inactive) and the GI50 [30] was 18.4 µM (inactive). The GI50 [31] was 16.6 µM (inactive), the GI50 [32] was 21 µM (inactive) and the GI50 [33] was 41.8 µM (inactive). For the same compound, the GI50 [34] was 21.4 µM (inactive), the GI50 [35] was 31.8 µM (inactive) and the GI50 [36] was 27.2 µM (inactive). The GI50 [37] was 58.2 µM (inactive), the GI50 [38] was 20.1 µM (inactive) and the GI50 [39] was 19.8 µM (inactive). For the same compound, the GI50 [40] was 17.7 µM (inactive), the GI50 [41] was 25.2 µM (inactive) and the GI50 [42] was 41.5 µM (inactive). The GI50 [43] was 23 µM (inactive), the GI50 [44] was 18 µM (inactive) and the GI50 [45] was 28.6 µM (inactive). The GI50 [46] was 12.9 µM (inactive), the GI50 [47] was 76.4 µM (inactive) and the GI50 [48] was 46.1 µM (inactive). For the same compound, the GI50 [49] was > 100 µM (inactive), the GI50 [50] was 17.7 µM (inactive) and the GI50 [51] was 14.8 µM (inactive). The GI50 [52] was 21.1 µM (inactive), the GI50 [53] was 19.1 µM (inactive) and the GI50 [54] was 34.5 µM (inactive). For the same compound, the GI50 [55] was 25.5 µM (inactive), the GI50 [56] was 18.7 µM (inactive) and the GI50 [57] was 17.6 µM (inactive). For the same compound, the GI50 [58] was 34 µM (inactive).
`Fc1ccc(C(OCCN2CCC3CCC(C2)N3C/C=C/c2ccco2)c2ccc(F)cc2)cc1` (configuration not stated) was tested, and the GI50 [1] was 9.4 µM (inactive), the GI50 [2] was 11.2 µM (inactive) and the GI50 [3] was 12.5 µM (inactive). The GI50 [4] was 12.7 µM (inactive), the GI50 [5] was 12.8 µM (inactive) and the GI50 [6] was 12.8 µM (inactive). For the same compound, the GI50 [7] was 0.0459 µM (active), the GI50 [8] was 1.69 µM (inactive) and the GI50 [9] was 15.7 µM (inactive). The GI50 [11] was 4.94 µM (inactive), the GI50 [12] was 4.91 µM (inactive) and the GI50 [13] was 5.09 µM. For the same compound, the GI50 [15] was 16.2 µM (inactive), the GI50 [16] was 4.62 µM (inactive) and the GI50 [18] was 14.7 µM (inactive). For the same compound, the GI50 [19] was 6.5 µM (inactive), the GI50 [20] was 3.21 µM (inactive) and the GI50 [21] was 9.1 µM (inactive). The GI50 [22] was 11.2 µM (inactive), the GI50 [23] was 5.5 µM (inactive) and the GI50 [24] was 10.2 µM (inactive). The GI50 [25] was 11.1 µM (inactive), the GI50 [26] was 10.7 µM (inactive) and the GI50 [27] was 12.4 µM (inactive). For the same compound, the GI50 [28] was 4.78 µM (inactive), the GI50 [29] was 9.57 µM (inactive) and the GI50 [59] was 13.2 µM (inactive). For the same compound, the GI50 [30] was 11.3 µM (inactive), the GI50 [31] was 7.11 µM (inactive) and the GI50 [32] was 7.23 µM (inactive). The GI50 [33] was 7.4 µM (inactive), the GI50 [34] was 11.4 µM (inactive) and the GI50 [35] was 10.2 µM (inactive). For the same compound, the GI50 [37] was 5.83 µM (inactive), the GI50 [38] was 8.2 µM (inactive) and the GI50 [39] was 4.2 µM (inactive). For the same compound, the GI50 [40] was 4.4 µM (inactive), the GI50 [41] was 12.5 µM (inactive) and the GI50 [42] was 13 µM (inactive). The GI50 [43] was 14.1 µM (inactive), the GI50 [44] was 6.46 µM (inactive) and the GI50 [45] was 12.3 µM (inactive). For the same compound, the GI50 [46] was 4.22 µM (inactive), the GI50 [47] was 14.6 µM (inactive) and the GI50 [48] was 11.4 µM (inactive). The GI50 [49] was 15.7 µM (inactive), the GI50 [50] was 15.1 µM (inactive) and the GI50 [51] was 2.47 µM (inactive). The GI50 [52] was 7.96 µM (inactive), the GI50 [53] was 5.14 µM (inactive) and the GI50 [54] was 6.93 µM (inactive). For the same compound, the GI50 [55] was 8.59 µM (inactive), the GI50 [56] was 4.44 µM (inactive) and the GI50 [57] was 13.8 µM (inactive). The GI50 [58] was 15.1 µM (inactive).
`COC(=O)c1c(C(=O)OC)c(C(c2ccccc2)c2ccccc2)n(-c2ccccc2)c1Cl` was tested, and the GI50 [1] was > 10 µM (inactive), the GI50 [2] was > 10 µM (inactive) and the GI50 [3] was 7.03 µM (inactive). The GI50 [4] was 6.25 µM (inactive), the GI50 [5] was 7.16 µM (inactive) and the GI50 [6] was > 10 µM (inactive). The GI50 [7] was 4.61 µM (inactive), the GI50 [8] was 6.03 µM (inactive) and the GI50 [9] was > 10 µM (inactive). For the same compound, the GI50 [10] was 5.75 µM (inactive), the GI50 [11] was > 10 µM (inactive) and the GI50 [12] was 3.7 µM (inactive). For the same compound, the GI50 [13] was 5.5 µM, the GI50 [14] was 4.06 µM (inactive) and the GI50 [15] was > 10 µM (inactive). For the same compound, the GI50 [16] was 9.14 µM (inactive), the GI50 [17] was 4.61 µM (inactive) and the GI50 [18] was 3.43 µM (inactive). For the same compound, the GI50 [19] was > 10 µM (inactive), the GI50 [20] was 4.14 µM (inactive) and the GI50 [21] was 4.69 µM (inactive). For the same compound, the GI50 [23] was > 10 µM (inactive), the GI50 [24] was 7.76 µM (inactive) and the GI50 [25] was > 10 µM (inactive). The GI50 [26] was 7.16 µM (inactive), the GI50 [27] was > 10 µM (inactive) and the GI50 [28] was 2.24 µM (inactive). The GI50 [29] was 5.79 µM (inactive), the GI50 [59] was > 10 µM (inactive) and the GI50 [30] was 6.76 µM (inactive). For the same compound, the GI50 [31] was > 10 µM (inactive), the GI50 [33] was 4.24 µM (inactive) and the GI50 [34] was 5.66 µM (inactive). The GI50 [35] was 6.49 µM (inactive), the GI50 [36] was > 10 µM (inactive) and the GI50 [37] was > 10 µM (inactive). For the same compound, the GI50 [38] was 3.09 µM (inactive), the GI50 [39] was 3.35 µM (inactive) and the GI50 [40] was > 10 µM (inactive). The GI50 [41] was > 10 µM (inactive), the GI50 [42] was 5 µM (inactive) and the GI50 [43] was > 10 µM (inactive). For the same compound, the GI50 [44] was > 10 µM (inactive), the GI50 [46] was > 10 µM (inactive) and the GI50 [48] was > 10 µM (inactive). For the same compound, the GI50 [49] was > 10 µM (inactive), the GI50 [51] was 3.17 µM (inactive) and the GI50 [52] was 7.43 µM (inactive). For the same compound, the GI50 [53] was 4.74 µM (inactive), the GI50 [54] was > 10 µM (inactive) and the GI50 [55] was 6.73 µM (inactive). The GI50 [56] was 7.14 µM (inactive), the GI50 [57] was 9.33 µM (inactive) and the GI50 [58] was 3.81 µM (inactive).
